Test results as given in the supplement of paper PMC10307832.

What was measured:
Experiment in all cases: relative viability (nuclei count vs DMSO), 5 days (fraction); higher = more cells survive
NCI-H1666 = system: NCI-H1666
Outline: (§1)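 Relative viability is defined as nuclei in treated wells over nuclei in vehicle wells. Duplicate plates were run and medians reported. Lung cancer cell lines in 1536-well plates were dosed by pin tool one day after seeding, with one drug or with a fixed anchor-drug dose plus five library-drug doses (not always all listed) in √10 steps, and nuclei were counted after 5 days.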

BEN = system: BEN
Outline: as §1

NCI-H647 = system: NCI-H647
Outline: as §1

201T = system: 201T
Outline: as §1

NCI-H2087 = system: NCI-H2087
Outline: as §1

HCC-44 = system: HCC-44
Outline: as §1

COR-L 105 = system: COR-L 105
Outline: as §1

NCI-H2342 = system: NCI-H2342
Outline: as §1

HCC-827 = system: HCC-827
Outline: as §1

NCI-H1975 = system: NCI-H1975
Outline: as §1

NCI-H2085 = system: NCI-H2085
Outline: as §1

NCI-H2126 = system: NCI-H2126
Outline: as §1

SW 1573 = system: SW 1573
Outline: as §1

EPLC-272H = system: EPLC-272H
Outline: as §1

LU99A = system: LU99A
Outline: as §1

H3255 = system: H3255
Outline: as §1

LCLC-97TM1 = system: LCLC-97TM1
Outline: as §1

HOP-62 = system: HOP-62
Outline: as §1

LOU-NH91 = system: LOU-NH91
Outline: as §1

NCI-H1437 = system: NCI-H1437
Outline: as §1

NCI-H358 = system: NCI-H358
Outline: as §1

EKVX = system: EKVX
Outline: as §1

PC-3 [JPC-3] = system: PC-3 [JPC-3]
Outline: as §1

NCI-H1395 = system: NCI-H1395
Outline: as §1

C[C@@H]1CN(CC(=O)Nc2ccc3c(c2)Cc2cccc(-c4cc(=O)cc(N5CCOCC5)o4)c2S3)C[C@H](C)O1 + CCNC(=O)c1noc(-c2cc(C(C)C)c(O)cc2O)c1-c1ccc(CN2CCOCC2)cc1 [Luminespib] (partner 0.01 µM)
relative viability (NCI-H1666; first compound 0.04 µM): 1
relative viability (NCI-H1666; first compound 0.1265 µM): 1.09
relative viability (NCI-H1666; first compound 0.4 µM): 1.12
relative viability (NCI-H1666; first compound 4 µM): 0.905
relative viability (BEN; first compound 0.04 µM): 0.264
relative viability (BEN; first compound 0.1265 µM): 0.252
relative viability (BEN; first compound 0.4 µM): 0.463
relative viability (BEN; first compound 4 µM): 0.322
relative viability (NCI-H647; first compound 0.04 µM): 0.121
relative viability (NCI-H647; first compound 0.1265 µM): 0.153
relative viability (NCI-H647; first compound 0.4 µM): 0.152
relative viability (NCI-H647; first compound 4 µM): 0.163
relative viability (201T; first compound 0.04 µM): 1.06
relative viability (201T; first compound 0.1265 µM): 1.05
relative viability (201T; first compound 0.4 µM): 1.04
relative viability (201T; first compound 4 µM): 1.01
relative viability (NCI-H2087; first compound 0.04 µM): 0.217
relative viability (NCI-H2087; first compound 0.1265 µM): 0.188
relative viability (NCI-H2087; first compound 0.4 µM): 0.207
relative viability (NCI-H2087; first compound 4 µM): 0.168
relative viability (HCC-44; first compound 0.04 µM): 0.9
relative viability (HCC-44; first compound 0.1265 µM): 1.04
relative viability (HCC-44; first compound 0.4 µM): 1.19
relative viability (HCC-44; first compound 4 µM): 0.949
relative viability (COR-L 105; first compound 0.04 µM): 0.882
relative viability (COR-L 105; first compound 0.1265 µM): 0.719
relative viability (COR-L 105; first compound 0.4 µM): 0.887
relative viability (COR-L 105; first compound 4 µM): 0.783
relative viability (NCI-H2342; first compound 0.04 µM): 0.706
relative viability (NCI-H2342; first compound 0.1265 µM): 0.641
relative viability (NCI-H2342; first compound 0.4 µM): 0.722
relative viability (NCI-H2342; first compound 4 µM): 0.662
relative viability (HCC-827; first compound 0.04 µM): 0.547
relative viability (HCC-827; first compound 0.1265 µM): 0.469
relative viability (HCC-827; first compound 0.4 µM): 0.915
relative viability (HCC-827; first compound 4 µM): 0.681
relative viability (NCI-H1975; first compound 0.04 µM): 0.289
relative viability (NCI-H1975; first compound 0.1265 µM): 0.199
relative viability (NCI-H1975; first compound 0.4 µM): 0.26
relative viability (NCI-H1975; first compound 4 µM): 0.158
relative viability (NCI-H2085; first compound 0.04 µM): 0.477
relative viability (NCI-H2085; first compound 0.1265 µM): 0.509
relative viability (NCI-H2085; first compound 0.4 µM): 0.404
relative viability (NCI-H2085; first compound 4 µM): 0.397
relative viability (NCI-H2126; first compound 0.04 µM): 1.04
relative viability (NCI-H2126; first compound 0.1265 µM): 0.881
relative viability (NCI-H2126; first compound 0.4 µM): 0.863
relative viability (NCI-H2126; first compound 4 µM): 0.744
relative viability (SW 1573; first compound 0.04 µM): 0.215
relative viability (SW 1573; first compound 0.1265 µM): 0.386
relative viability (SW 1573; first compound 0.4 µM): 0.207
relative viability (SW 1573; first compound 4 µM): 0.366
relative viability (EPLC-272H; first compound 0.04 µM): 0.519
relative viability (EPLC-272H; first compound 0.1265 µM): 0.381
relative viability (EPLC-272H; first compound 0.4 µM): 0.26
relative viability (EPLC-272H; first compound 4 µM): 0.254
relative viability (LU99A; first compound 0.04 µM): 0.304
relative viability (LU99A; first compound 0.1265 µM): 0.192
relative viability (LU99A; first compound 0.4 µM): 0.26
relative viability (LU99A; first compound 4 µM): 0.231
relative viability (H3255; first compound 0.04 µM): 0.952
relative viability (H3255; first compound 0.1265 µM): 0.767
relative viability (H3255; first compound 0.4 µM): 0.912
relative viability (H3255; first compound 4 µM): 0.881
relative viability (LCLC-97TM1; first compound 0.04 µM): 0.657
relative viability (LCLC-97TM1; first compound 0.1265 µM): 0.828
relative viability (LCLC-97TM1; first compound 0.4 µM): 0.749
relative viability (LCLC-97TM1; first compound 4 µM): 0.813
relative viability (HOP-62; first compound 0.04 µM): 0.917
relative viability (HOP-62; first compound 0.1265 µM): 0.898
relative viability (HOP-62; first compound 0.4 µM): 0.92
relative viability (HOP-62; first compound 4 µM): 0.907
relative viability (LOU-NH91; first compound 0.04 µM): 0.39
relative viability (LOU-NH91; first compound 0.1265 µM): 0.358
relative viability (LOU-NH91; first compound 0.4 µM): 0.3
relative viability (LOU-NH91; first compound 4 µM): 0.371
relative viability (NCI-H1437; first compound 0.04 µM): 1.2
relative viability (NCI-H1437; first compound 0.1265 µM): 1.16
relative viability (NCI-H1437; first compound 0.4 µM): 1.22
relative viability (NCI-H1437; first compound 4 µM): 0.891
relative viability (NCI-H358; first compound 0.04 µM): 0.429
relative viability (NCI-H358; first compound 0.1265 µM): 0.308
relative viability (NCI-H358; first compound 0.4 µM): 0.399
relative viability (NCI-H358; first compound 4 µM): 0.233
relative viability (EKVX; first compound 0.04 µM): 0.802
relative viability (EKVX; first compound 0.1265 µM): 0.874
relative viability (EKVX; first compound 0.4 µM): 0.955
relative viability (EKVX; first compound 4 µM): 0.814
relative viability (PC-3 [JPC-3]; first compound 0.04 µM): 0.744
relative viability (PC-3 [JPC-3]; first compound 0.1265 µM): 0.684
relative viability (PC-3 [JPC-3]; first compound 0.4 µM): 0.728
relative viability (PC-3 [JPC-3]; first compound 4 µM): 0.605
relative viability (NCI-H1395; first compound 0.04 µM): 0.695
relative viability (NCI-H1395; first compound 0.1265 µM): 0.627
relative viability (NCI-H1395; first compound 0.4 µM): 0.69
relative viability (NCI-H1395; first compound 4 µM): 0.741
